The results in this text go back to patent publication US20210387990A1, “METHOD FOR PRODUCING DIMETHOXYBENZENE COMPOUND” (TAIHO PHARMACEUTICAL CO., LTD., priority 2018, published 2021).

This data set in a line: solubility in solvents. As to conditions: in water, highly water-soluble organic solvents, and highly fat-soluble organic solvents; free form. Type of data set: physicochemical.

`COc1cc(C#Cc2nn([C@H]3CCNC3)c3ncnc(N)c23)cc(OC)c1` [compound B, (S)-3-((3,5-dimethoxyphenyl)ethynyl)-1-(pyrrolidin-3-yl)-1H-pyrazolo[3,4-d]pyrimidin-4-amine]: the solubility result was “easily soluble”.
